Measurements from US20260042764A1, “COMPOSITIONS AND METHODS FOR INHIBITION OF KRAS” (TheRas, Inc., priority 2022, published 2026).

Legend:
[1] = target: T1, Avi-KRAS G12R (1-169) GppNHp/RAF1 RBD-3xFLAG (52-151) (Homo sapiens, UniProt P01116, G12R); assay: Raf1-KRAS G12R-GppNHP disruption HTRF assay (Biological Example 1); assay type: binding
T1 construct: Avi-KRAS G12R (1-169)
Outline: (§1)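 Compounds were tested for disruption of KRAS–RAF1 RBD binding by HTRF in 50 mM Tris pH 7.5, 100 mM NaCl, 5 mM MgCl2, 0.1% BSA, 0.01% Tween, 10% DMSO. Protein mix was incubated 1 h at room temperature with shaking, then detection reagents added for another 1 h. Activity expressed as percent of DMSO control.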

[2] = target: T2, Avi-KRAS G12V (1-169) GppNHp/RAF1 RBD-3xFLAG (52-151) (Homo sapiens, UniProt P01116, G12V); assay: Raf1-KRAS G12V-GppNHP disruption HTRF assay (Biological Example 1); assay type: binding
T2 construct: Avi-KRAS G12V (1-169)
T2 sequence (P01116 1-169 isoform P01116-2 G12V): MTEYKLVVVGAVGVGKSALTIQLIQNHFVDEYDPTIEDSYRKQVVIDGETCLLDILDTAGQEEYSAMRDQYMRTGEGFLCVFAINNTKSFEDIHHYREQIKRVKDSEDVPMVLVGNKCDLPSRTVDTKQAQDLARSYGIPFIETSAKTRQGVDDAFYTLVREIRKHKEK
Outline: as §1

SW620 cells (KRAS G12V) = assay: Cell-based pERK HTRF assay in SW620 cell (Biological Example 4); settings: Homo sapiens, SW-620, SW620 (KRAS G12V) cells, pERK HTRF
Outline: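 This assay measures inhibition of ERK phosphorylation downstream of KRAS G12V in intact SW620 cells. Compounds are applied for 4 h over nine half-log concentrations starting at 1 μM, and pERK is quantified by HTRF.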

[3] = target: T3, Avi-KRAS WT (1-169) GppNHp/RAF1 RBD-3xFLAG (52-151) (Homo sapiens, UniProt P01116); assay: Raf1-KRAS WT-GppNHP disruption HTRF assay (Biological Example 1); assay type: binding
T3 construct: Avi-KRAS WT (1-169)
T3 sequence (P01116 1-169 isoform P01116-2): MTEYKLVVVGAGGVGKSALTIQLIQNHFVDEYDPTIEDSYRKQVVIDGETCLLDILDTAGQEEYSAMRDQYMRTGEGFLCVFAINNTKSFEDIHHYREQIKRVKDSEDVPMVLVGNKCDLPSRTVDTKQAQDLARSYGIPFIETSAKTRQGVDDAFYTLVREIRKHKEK
Outline: as §1

GP2d cells (KRAS G12D) = assay: Cell-based pERK HTRF assay in GP2d cell (Biological Example 2); settings: GP2d, GP2d (KRAS G12D) cells, pERK HTRF
Outline: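 Phospho-ERK in lysed cells was detected by HTRF using Eu cryptate and d2 antibodies, read between 4 and 24 h at room temperature. Prior to lysis, KRAS G12D GP2d cells, seeded the day before in DMEM with 10% FBS, were exposed to compounds for 60 min. Compounds were tested as 9-point half-log curves from 1 μM or 100 nM top, with 0.25% DMSO.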

[4] = target: T4, Avi-KRAS G12D (1-169) GppNHp/RAF1 RBD-3xFLAG (52-151) (Homo sapiens, UniProt P01116, G12D); assay: Raf1-KRAS G12D-GppNHP disruption HTRF assay (Biological Example 1); assay type: binding
T4 construct: Avi-KRAS G12D (1-169)
T4 sequence (P01116 1-169 isoform P01116-2 G12D): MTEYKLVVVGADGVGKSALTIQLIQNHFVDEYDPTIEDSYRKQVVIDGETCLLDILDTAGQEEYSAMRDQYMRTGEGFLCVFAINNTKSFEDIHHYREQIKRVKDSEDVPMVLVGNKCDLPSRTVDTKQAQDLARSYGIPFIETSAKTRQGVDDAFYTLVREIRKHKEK
Outline: as §1

[5] = KRAS G12R, GppNHp-loaded, class symbols
[6] = KRAS G12V, GppNHp-loaded, class symbols
[7] = KRAS WT, GppNHp-loaded, class symbols
[8] = KRAS G12D, GppNHp-loaded, class symbols

T1 sequence (P01116 1-169 isoform P01116-2 G12R): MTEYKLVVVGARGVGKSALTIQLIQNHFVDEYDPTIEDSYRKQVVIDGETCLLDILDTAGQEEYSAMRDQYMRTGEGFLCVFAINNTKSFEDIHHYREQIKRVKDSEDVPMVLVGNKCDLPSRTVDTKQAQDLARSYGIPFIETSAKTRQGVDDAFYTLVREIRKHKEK

| SMILES | IC50 ([1]; KRAS G12R-GppNHp/RAF1 RBD HTRF) | IC50 ([2]; KRAS G12V-GppNHp/RAF1 RBD HTRF) | IC50 (SW620 cells (KRAS G12V)) | IC50 ([3]; KRAS WT-GppNHp/RAF1 RBD HTRF) | IC50 (GP2d cells (KRAS G12D)) | IC50 ([4]; KRAS G12D-GppNHp/RAF1 RBD HTRF) | IC50 [1, 5] | IC50 [2, 6] | IC50 (SW620 cells (KRAS G12V); class symbols) | IC50 [3, 7] | IC50 (GP2d cells (KRAS G12D); class symbols) | IC50 [4, 8] | IC50 ([1]; KRAS G12R, GppNHp-loaded, Table 11) | IC50 ([2]; KRAS G12V, GppNHp-loaded, Table 11) | IC50 ([3]; KRAS WT, GppNHp-loaded, Table 11) | IC50 ([4]; KRAS G12D, GppNHp-loaded, Table 11) |
| --- | --- | --- | --- | --- | --- | --- | --- | --- | --- | --- | --- | --- | --- | --- | --- | --- |
| CC(=O)N1CCN(c2nc(OC[C@@]34CCCN3C[C@H](F)C4)nc3c(F)c(-c4ccc(F)c5sc(N)c(C#N)c45)c(C(F)(F)F)cc23)C2CC21 (stereo partly drawn) [Compound 358] | 1000 to 10000 nM | 1000 to 10000 nM | < 100 nM | 1000 to 10000 nM | < 100 nM | 1000 to 10000 nM | – | – | – | – | – | – | – | – | – | – |
| CCN(c1nc(OC[C@@]23CCCN2C[C@H](F)C3)nc2c(F)c(-c3ccc(F)c4sc(N)c(C#N)c34)c(C(F)(F)F)cc12)[C@H]1CC(=O)N(CCOC)C1 (atropisomer, axis not shown) [Compound 815] | – | – | – | – | – | – | < 100 nM | < 100 nM | < 100 nM | < 100 nM | < 100 nM | < 100 nM | – | – | – | – |
| CN(C)C(=O)c1nn2c(c1C(F)(F)F)CN(c1nc(OC[C@@]34CCCN3C[C@H](F)C4)nc3c(F)c(-c4ccc(F)c5sc(N)c(C#N)c45)c(C(F)(F)F)cc13)CC2 (atropisomer, axis not shown) [Compound 596] | – | – | – | – | – | – | 100 to 1000 nM | 100 to 1000 nM | < 100 nM | 100 to 1000 nM | < 100 nM | < 100 nM | – | – | – | – |
| N#Cc1c(N)sc2c(F)ccc(-c3c(C(F)(F)F)cc4c(N5CCCC[C@H](O)C5)nc(OC[C@@]56CCCN5C[C@H](F)C6)nc4c3F)c12 [Compound 290] | 100 to 1000 nM | 100 to 1000 nM | < 100 nM | 100 to 1000 nM | < 100 nM | 100 to 1000 nM | – | – | – | – | – | – | – | – | – | – |
| N#Cc1c(N)sc2c(F)ccc(-c3c(C(F)(F)F)cc4c(N5C[C@H]6[C@@H]5CCN6C(=O)C5CC5)nc(OC[C@@]56CCCN5C[C@H](F)C6)nc4c3F)c12 (atropisomer, axis not shown) [Compound 643] | – | – | – | – | – | – | 1000 to 10000 nM | 1000 to 10000 nM | 100 to 1000 nM | 1000 to 10000 nM | 100 to 1000 nM | 1000 to 10000 nM | – | – | – | – |
| C[C@H]1C[C@H](O)CCN1c1nc(OC[C@@]23CCCN2C[C@H](F)C3)nc2c(F)c(-c3ccc(F)c4sc(N)c(C#N)c34)c(C(F)(F)F)cc12 [Compound 246] | – | – | < 100 nM | – | < 100 nM | – | – | – | – | – | – | – | 100 to 1000 nM | 100 to 1000 nM | 100 to 1000 nM | 100 to 1000 nM |
| CCN(c1nc(OC[C@@]23CCCN2C[C@H](F)C3)nc2c(F)c(-c3ccc(F)c4sc(N)c(C#N)c34)c(C(F)(F)F)cc12)[C@H]1CCN(C(=O)c2ccncn2)C1 (atropisomer, axis not shown) [Compound 730] | – | – | – | – | – | – | < 100 nM | < 100 nM | < 100 nM | < 100 nM | < 100 nM | < 100 nM | – | – | – | – |

More lines, now with the values ahead:

| IC50 ([1]; KRAS G12R-GppNHp/RAF1 RBD HTRF) | IC50 ([2]; KRAS G12V-GppNHp/RAF1 RBD HTRF) | IC50 (SW620 cells (KRAS G12V)) | IC50 ([3]; KRAS WT-GppNHp/RAF1 RBD HTRF) | IC50 (GP2d cells (KRAS G12D)) | IC50 ([4]; KRAS G12D-GppNHp/RAF1 RBD HTRF) | IC50 [1, 5] | IC50 [2, 6] | IC50 (SW620 cells (KRAS G12V); class symbols) | IC50 [3, 7] | IC50 (GP2d cells (KRAS G12D); class symbols) | IC50 [4, 8] | IC50 ([1]; KRAS G12R, GppNHp-loaded, Table 11) | IC50 ([2]; KRAS G12V, GppNHp-loaded, Table 11) | IC50 ([3]; KRAS WT, GppNHp-loaded, Table 11) | IC50 ([4]; KRAS G12D, GppNHp-loaded, Table 11) | SMILES |
| --- | --- | --- | --- | --- | --- | --- | --- | --- | --- | --- | --- | --- | --- | --- | --- | --- |
| – | – | – | – | – | – | 100 to 1000 nM | 100 to 1000 nM | < 100 nM | 100 to 1000 nM | < 100 nM | 100 to 1000 nM | – | – | – | – | CN(C)C(=O)N1CC[C@H](N(c2nc(OC[C@@]34CCCN3C[C@H](F)C4)nc3c(F)c(-c4ccc(F)c5sc(N)c(C#N)c45)c(C(F)(F)F)cc23)C2CC2)C1 (atropisomer, axis not shown) [Compound 743] |
| – | – | – | – | – | – | < 100 nM | < 100 nM | < 100 nM | < 100 nM | < 100 nM | < 100 nM | – | – | – | – | CCN(c1nc(OC[C@@]23CCCN2C[C@H](F)C3)nc2c(F)c(-c3ccc(F)c4sc(N)c(C#N)c34)c(C(F)(F)F)cc12)[C@H]1CCN(C(=O)OCC2COC2)C1 (atropisomer, axis not shown) [Compound 639] |
| – | – | – | – | – | – | < 100 nM | 100 to 1000 nM | < 100 nM | < 100 nM | < 100 nM | < 100 nM | – | – | – | – | CCN(CC)C(=O)N1CCC(N(CC)c2nc(OCC34CCCN3CC(F)C4)nc3c(F)c(-c4ccc(F)c5sc(N)c(C#N)c45)c(C(F)(F)F)cc23)C1 (stereo not drawn) [Compound 572] |
| – | – | – | – | – | – | < 100 nM | 100 to 1000 nM | < 100 nM | 100 to 1000 nM | < 100 nM | < 100 nM | – | – | – | – | CCN(c1nc(OCC23CCCN2CC(F)C3)nc2c(F)c(-c3ccc(F)c4sc(N)c(C#N)c34)c(C(F)(F)F)cc12)C1CCN(C(=O)c2ncon2)C1 (stereo not drawn) [Compound 754] |
